We go through 12 molecules from ChEMBL document CHEMBL3233007, “Prenylated coumarins: natural phosphodiesterase-4 inhibitors from Toddalia asiatica” (J Nat Prod, 2014).

The target in the test is 3',5'-cyclic-AMP phosphodiesterase 4D (Homo sapiens, UniProt Q08499). Put plainly: Inhibition of human PDE4D2 catalytic domain (86 to 413aa) expressed in Escherichia coli strain BL21 after 15 mins by liquid scintillation counting in presence of [3H]-cAMP.
Sequence of 3',5'-cyclic-AMP phosphodiesterase 4D (Q08499 whole entry, the tested form may be a part): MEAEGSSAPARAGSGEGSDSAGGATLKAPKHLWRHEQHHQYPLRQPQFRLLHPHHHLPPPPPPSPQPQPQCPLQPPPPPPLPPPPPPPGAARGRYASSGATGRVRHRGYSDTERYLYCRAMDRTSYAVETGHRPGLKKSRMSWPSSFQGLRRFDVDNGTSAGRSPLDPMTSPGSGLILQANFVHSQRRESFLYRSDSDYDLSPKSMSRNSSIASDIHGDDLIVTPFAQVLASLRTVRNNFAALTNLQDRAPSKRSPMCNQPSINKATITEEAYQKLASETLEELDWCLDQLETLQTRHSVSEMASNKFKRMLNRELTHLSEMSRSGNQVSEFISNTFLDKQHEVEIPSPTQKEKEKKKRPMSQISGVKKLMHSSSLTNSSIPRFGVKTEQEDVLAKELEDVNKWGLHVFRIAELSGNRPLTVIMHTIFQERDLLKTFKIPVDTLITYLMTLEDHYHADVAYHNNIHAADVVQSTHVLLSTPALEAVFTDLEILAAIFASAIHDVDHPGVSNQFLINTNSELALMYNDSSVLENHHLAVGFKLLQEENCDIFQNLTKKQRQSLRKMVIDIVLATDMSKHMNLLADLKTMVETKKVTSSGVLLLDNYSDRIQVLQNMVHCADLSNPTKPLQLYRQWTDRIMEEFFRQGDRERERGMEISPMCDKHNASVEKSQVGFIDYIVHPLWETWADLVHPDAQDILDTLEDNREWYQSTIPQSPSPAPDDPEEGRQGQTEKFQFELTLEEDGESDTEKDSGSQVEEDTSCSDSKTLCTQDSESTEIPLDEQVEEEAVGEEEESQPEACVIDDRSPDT
On to `COc1cc2oc(=O)ccc2c(OC)c1C[C@H](OC(=O)[C@]1(O)C[C@@H](O)[C@@H](O)[C@H](OC(=O)/C=C/c2ccc(O)c(O)c2)C1)C(C)(C)O`, for which the IC50 was 16.7 µM.
On to `COc1cc(O)c(/C=C/C(=O)O[C@@H](Cc2c(OC)cc3oc(=O)ccc3c2OC)C(C)(C)O)c(OC)c1CC=C(C)C`, for which the IC50 was 7.81 µM.
As to `COc1cc(OC)c2ccc(=O)oc2c1/C=C/[C@H]1C[C@@H](C=C(C)C)c2c(c3ccccc3n(C)c2=O)O1`, the IC50 was found to be 0.14 µM.
For the molecule `COc1cc2c(c3oc(=O)ccc13)CCC(C)(C)O2`, the IC50 was 2.2 µM.
Turning to `COc1cc2ccc(=O)oc2c2c1OC(C)(C)CC2`, the IC50 is 1.53 µM.
With `CC1(C)C=Cc2c(c(O)cc3ccc(=O)oc23)O1` the figure was 2.38 µM; with `COc1cc2oc(=O)ccc2c(OC)c1CC=C(C)C`, 9.98 µM; with `COc1cc2oc(=O)ccc2c(OC)c1CCC(C)C`, 11.5 µM.
For `COc1cc(OC)c2ccc(=O)oc2c1CC=C(C)C`, the IC50 came out at 6.82 µM.
On to `COc1cc(OC)c2ccc(=O)oc2c1CCC(C)C`, for which the IC50 is 10.2 µM.
Take `COC1=CC(=O)c2cc(C)cc(-c3c(OC)cc(OC)c4ccc(=O)oc34)c2C1=O`: the IC50 was determined as 5.51 µM.
As for `COc1cc2c(c3oc(=O)ccc13)C=CC(C)(C)O2`, the IC50 is 1.87 µM.

Usually IC50 stands for the concentration needed to halve the response being measured.
